The target in one assay is T1, Class A ESBL SHV-5 (Klebsiella pneumoniae, UniProt P0A3M1).
T1 construct: made in house; host or cells: E. coli BL21(DE3) for purified enzyme; E. coli cells containing SHV-5 for extracts
It is filed as biochemical, E. coli. The following applies: nitrocefin 100 μM, PBS pH 7.0, read-out: SHV-5 IC50 Range.

For the next assay, the target named is T2, Class A ESBL CTXM-15 (Escherichia coli, UniProt Q9EXV5).
T2 construct: made in house; host or cells: E. coli BL21(DE3)
T2 sequence (Q9EXV5 entry or part of it): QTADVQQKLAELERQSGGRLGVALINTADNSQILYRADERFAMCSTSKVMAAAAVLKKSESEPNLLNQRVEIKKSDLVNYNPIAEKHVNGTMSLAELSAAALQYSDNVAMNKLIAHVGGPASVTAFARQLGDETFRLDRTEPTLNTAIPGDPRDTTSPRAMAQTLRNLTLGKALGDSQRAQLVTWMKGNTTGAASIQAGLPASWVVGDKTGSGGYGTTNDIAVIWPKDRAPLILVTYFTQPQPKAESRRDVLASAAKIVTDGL
Briefly: β-lactamase enzyme inhibition (nitrocefin hydrolysis), CTXM-15. Type of assay: biochemical. The following applies: purified enzyme; nitrocefin 100 μM, PBS pH 7.0; read-out: CTXM-15 IC50 Range. Summed up:
(§1)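 Native untagged enzymes were expressed in E. coli BL21(DE3) and purified by cation exchange and gel filtration. Compound series (100–0.005 μM in PBS pH 7.0, before addition of an equal enzyme volume) were preincubated with enzyme 10 min at 37°C. Nitrocefin (100 μM final) hydrolysis was read kinetically at 486 nm for 10 min, and IC50 was taken as 50% reduction of initial rate versus no-inhibitor wells.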

The target in another assay is T3, Class C P99 AmpC (Enterobacter cloacae, UniProt P05364).
T3 construct: made in house; host or cells: E. coli BL21(DE3)
T3 sequence (P05364 21-381): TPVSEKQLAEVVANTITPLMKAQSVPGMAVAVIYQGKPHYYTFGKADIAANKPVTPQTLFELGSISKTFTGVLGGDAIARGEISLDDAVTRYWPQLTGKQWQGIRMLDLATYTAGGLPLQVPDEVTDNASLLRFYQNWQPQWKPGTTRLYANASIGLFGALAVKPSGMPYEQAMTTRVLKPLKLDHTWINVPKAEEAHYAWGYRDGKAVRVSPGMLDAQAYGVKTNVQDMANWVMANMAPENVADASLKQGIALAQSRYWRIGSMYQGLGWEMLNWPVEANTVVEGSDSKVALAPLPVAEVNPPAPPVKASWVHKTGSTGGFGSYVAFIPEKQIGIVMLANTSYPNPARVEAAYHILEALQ
It is filed as biochemical. The following applies: purified enzyme; nitrocefin 100 μM, PBS pH 7.0; read-out: P99 AmpC IC50 Range. A digest of the protocol: as §1

The target in assay [1] is T4, Class A carbapenemase KPC-2 (Klebsiella pneumoniae, UniProt Q9F663).
T4 construct: made in house; host or cells: E. coli BL21(DE3)
T4 sequence (Q9F663 25-293 limits assumed): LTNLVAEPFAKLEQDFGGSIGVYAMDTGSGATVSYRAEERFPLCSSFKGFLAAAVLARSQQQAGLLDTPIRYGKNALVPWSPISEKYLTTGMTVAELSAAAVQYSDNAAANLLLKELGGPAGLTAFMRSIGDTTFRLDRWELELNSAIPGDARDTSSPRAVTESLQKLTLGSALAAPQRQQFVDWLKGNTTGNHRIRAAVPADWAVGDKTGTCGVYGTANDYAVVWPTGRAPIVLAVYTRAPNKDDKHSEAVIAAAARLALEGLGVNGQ
The assay is described as follows: β-lactamase enzyme inhibition (nitrocefin hydrolysis), KPC-2. The following applies: purified enzyme; nitrocefin 100 μM, PBS pH 7.0; read-out: KPC-2 IC50 Range. It is filed as biochemical. Summed up: as §1

Assay [2] concerns E. cloacae expressing the Class C P99+ AmpC. The assay is described as follows: microbe, parasite or virus in culture. It is filed as cell-based. The following applies: in the presence of fixed 8 μg/mL Ceftazidime. A digest of the protocol:
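Broth microdilution potentiation assay in cation-adjusted Mueller Hinton broth: compound was titrated 8 to 0.015 μg/mL final against a fixed 8 μg/ml cephalosporin. Strains were pre-grown 3-5 h with 50 μg/mL ampicillin and inoculated per CLSI. MIC was read visually after 16-20 h at 37° C.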

The subject of assay [3] is E. coli expressing the Class A ESBL SHV-5. The assay is described as follows: microbe, parasite or virus in culture. The conditions noted are these: in the presence of fixed 8 μg/mL Ceftazidime. It is filed as cell-based.
In assay [4] the test system is K. pneumoniae expressing the Class A ESBL CTX-M-15. Briefly: microbe, parasite or virus in culture. It is filed as cell-based. The following applies: in the presence of fixed 8 μg/mL Ceftazidime.
In assay [5] the test system is K. pneumoniae expressing the Class A carbapenemase KPC-2. Briefly: microbe, parasite or virus in culture. The following applies: in the presence of fixed 8 μg/mL Ceftazidime.
Where [6] appears, read: cellular extracts of E. coli containing SHV-5 (Examples 2-30).
The mark [7] stands for this setting: purified beta-lactamase enzyme (Examples 1 and 31-64).

Molecules are shown by their SMILES. Like-named read-outs stand apart in the source and are kept apart here.

We go through six molecules from patent publication US20100120715A1, “BETA-LACTAMASE INHIBITORS” (priority 2007, published 2010).

T1 sequence (P0A3M1 22-286): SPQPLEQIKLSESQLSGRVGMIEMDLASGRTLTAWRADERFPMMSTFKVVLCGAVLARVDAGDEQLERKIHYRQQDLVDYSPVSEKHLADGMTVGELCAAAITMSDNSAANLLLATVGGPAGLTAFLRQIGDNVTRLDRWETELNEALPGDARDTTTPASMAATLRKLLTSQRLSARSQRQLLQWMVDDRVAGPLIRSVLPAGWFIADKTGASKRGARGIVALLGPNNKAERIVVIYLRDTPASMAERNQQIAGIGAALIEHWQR

For orientation: IC50 means the concentration needed to halve the response being measured. Regarding `CCCCC(=O)N[C@@H](Cc1cccc(C(=O)O)c1O)B(O)O` [Example 23, (1R)-1-(pentanoylamino)-2-(2-hydroxy-3-carboxyphenyl)ethyl-1-boronic acid], the half-inhibitory concentration (IC50) on Class A ESBL SHV-5 (setting [6]) was 10 to 100 nM; on Class A ESBL CTXM-15, < 10 nM; on Class C P99 AmpC, 10 to 100 nM; in assay [1] it was < 10 nM. The “MIC of example compound, E. cloacae P99 AmpC + 8 μg/mL CAZ” value (“MIC … E. cloacae P99 AmpC + 8 μg/mL CAZ” below) in assay [2] was “C (C represents an MIC of <1 μg/mL)”. The “MIC of example compound, E. coli SHV-5 + 8 μg/mL CAZ” value (“MIC … E. coli SHV-5 + 8 μg/mL CAZ” for short) in assay [3] is given as “C (C represents an MIC of <1 μg/mL)”. Also, in assay [4], the “MIC of example compound, K. pneumoniae CTX-M-15 + 8 μg/mL CAZ” value (“MIC … K. pneumoniae CTX-M-15 + 8 μg/mL CAZ” below) was “C (C represents an MIC of <1 μg/mL)”. In assay [5], the “MIC of example compound, K. pneumoniae KPC-2 + 8 μg/mL CAZ” value (“MIC … K. pneumoniae KPC-2 + 8 μg/mL CAZ” below) is given as “C (C represents an MIC of <1 μg/mL)”.

Consider `NCC(=O)N[C@@H](Cc1cccc(C(=O)O)c1O)B(O)O.O=CO` [Example 41, (1R)-1-(2-aminoacetylamino)-2-(2-hydroxy-3-carboxyphenyl)ethyl-1-boronic acid formate salt], for which the IC50 on Class A ESBL SHV-5 (setting [7]) is > 1000 nM; on Class A ESBL CTXM-15, 100 to 1000 nM; on Class C P99 AmpC, > 1000 nM; in assay [1], 10 to 100 nM. Besides, in assay [2], the “MIC … E. cloacae P99 AmpC + 8 μg/mL CAZ” value is reported as “A (A represents an MIC >8 μg/mL)”. Moreover, the “MIC … E. coli SHV-5 + 8 μg/mL CAZ” value in assay [3] is “A (A represents an MIC >8 μg/mL)”. Besides, the “MIC … K. pneumoniae CTX-M-15 + 8 μg/mL CAZ” value in assay [4] is “A (A represents an MIC >8 μg/mL)”. Also, in assay [5], the “MIC … K. pneumoniae KPC-2 + 8 μg/mL CAZ” value was “C (C represents an MIC of <1 μg/mL)”.

As to `Cl.O=C(Cc1ccncc1)N[C@@H](Cc1cccc(C(=O)O)c1O)B(O)O` [Example 52, (1R)-1-(4-Pyridylacetylamino)-2-(2-hydroxy-3-carboxyphenyl)ethyl-1-boronic acid hydrochloride], the half-maximal inhibitory concentration (IC50) (on Class A ESBL SHV-5 (setting [7]); at Class A ESBL CTXM-15; on Class C P99 AmpC; in assay [1]) was < 10 nM throughout. The “MIC … E. cloacae P99 AmpC + 8 μg/mL CAZ” value in assay [2] was “C (C represents an MIC of <1 μg/mL)”. The “MIC … E. coli SHV-5 + 8 μg/mL CAZ” value in assay [3] is “C (C represents an MIC of <1 μg/mL)”. Besides, the “MIC … K. pneumoniae CTX-M-15 + 8 μg/mL CAZ” value in assay [4] is “C (C represents an MIC of <1 μg/mL)”. Moreover, the “MIC … K. pneumoniae KPC-2 + 8 μg/mL CAZ” value in assay [5] is given as “C (C represents an MIC of <1 μg/mL)”.

`COc1ccc(OC)c(CC(=O)N[C@@H](Cc2cccc(C(=O)O)c2O)B(O)O)c1` [Example 17, (1R)-1-(2-(2,5-dimethoxyphenyl)-acetylamino)-2-(2-hydroxy-3-carboxyphenyl)ethyl-1-boronic acid]: the IC50 (at Class A ESBL SHV-5 (setting [6]); at Class A ESBL CTXM-15; on Class C P99 AmpC; in assay [1]) was < 10 nM each time. Moreover, in assay [2], the “MIC … E. cloacae P99 AmpC + 8 μg/mL CAZ” value is “C (C represents an MIC of <1 μg/mL)”. Moreover, in assay [3], the “MIC … E. coli SHV-5 + 8 μg/mL CAZ” value was “A (A represents an MIC >8 μg/mL)”. Also, the “MIC … K. pneumoniae CTX-M-15 + 8 μg/mL CAZ” value in assay [4] was “C (C represents an MIC of <1 μg/mL)”.

On to `Nc1nc(CC(=O)N[C@@H](Cc2cccc(C(=O)O)c2O)B(O)O)cs1.O=CO` [Example 39, (1R)-1-(2-Amino-thiazol-4-yl)-acetylamino-1-(3-carboxy-2-hydroxy)benzyl-methylboronic acid formate salt], for which the IC50 on Class A ESBL SHV-5 (setting [7]) was < 10 nM; on Class A ESBL CTXM-15, < 10 nM; at Class C P99 AmpC, < 10 nM; in assay [1], 100 to 1000 nM. For the same molecule, the “MIC … E. cloacae P99 AmpC + 8 μg/mL CAZ” value in assay [2] is reported as “C (C represents an MIC of <1 μg/mL)”. Besides, the “MIC … E. coli SHV-5 + 8 μg/mL CAZ” value in assay [3] was “C (C represents an MIC of <1 μg/mL)”. The “MIC … K. pneumoniae CTX-M-15 + 8 μg/mL CAZ” value in assay [4] is “C (C represents an MIC of <1 μg/mL)”. For the same molecule, the “MIC … K. pneumoniae KPC-2 + 8 μg/mL CAZ” value in assay [5] is recorded as “C (C represents an MIC of <1 μg/mL)”.

Turning to `O=C(N[C@@H](Cc1cccc(C(=O)O)c1O)B(O)O)c1cn2ccsc2n1` [Example 56, (1R)-1-(Imidazo[2,1-b]thiazole-6-carbonyl-amino)-2-(2-hydroxy-3-carboxyphenyl)ethyl-1-boronic acid], the half-inhibitory concentration (IC50) on Class A ESBL SHV-5 (setting [7]) lay within 10 to 100 nM; on Class A ESBL CTXM-15, 10 to 100 nM; on Class C P99 AmpC, 100 to 1000 nM; in assay [1] it was 100 to 1000 nM. In addition, the “MIC … E. cloacae P99 AmpC + 8 μg/mL CAZ” value in assay [2] was “A (A represents an MIC >8 μg/mL)”. Besides, the “MIC … E. coli SHV-5 + 8 μg/mL CAZ” value in assay [3] was “A (A represents an MIC >8 μg/mL)”. Further, the “MIC … K. pneumoniae CTX-M-15 + 8 μg/mL CAZ” value in assay [4] is reported as “A (A represents an MIC >8 μg/mL)”.
